Source: patent US12129246B1, “Hydroquinazoline derivatives for the treatment of a disease or disorder” (Novartis AG, priority 2023, dated 2024)
Like-named read-outs stand apart in the source and are kept apart here.

Legend:
monkey NPR1 = monkey NPR1 (Macaca fascicularis, UniProt A0A7N9DBT9); assay: Cellular cGMP production assay, monkey NPR1 expressing CHO-K1 cells (CisBio HTRF); format: cell-based; settings: for Monkey NPR1 Amax (% of ANP): maximum cGMP production as percentage of the maximum cGMP produced with ANP
Chain of monkey NPR1 (A0A7N9DBT9 entry or part of it): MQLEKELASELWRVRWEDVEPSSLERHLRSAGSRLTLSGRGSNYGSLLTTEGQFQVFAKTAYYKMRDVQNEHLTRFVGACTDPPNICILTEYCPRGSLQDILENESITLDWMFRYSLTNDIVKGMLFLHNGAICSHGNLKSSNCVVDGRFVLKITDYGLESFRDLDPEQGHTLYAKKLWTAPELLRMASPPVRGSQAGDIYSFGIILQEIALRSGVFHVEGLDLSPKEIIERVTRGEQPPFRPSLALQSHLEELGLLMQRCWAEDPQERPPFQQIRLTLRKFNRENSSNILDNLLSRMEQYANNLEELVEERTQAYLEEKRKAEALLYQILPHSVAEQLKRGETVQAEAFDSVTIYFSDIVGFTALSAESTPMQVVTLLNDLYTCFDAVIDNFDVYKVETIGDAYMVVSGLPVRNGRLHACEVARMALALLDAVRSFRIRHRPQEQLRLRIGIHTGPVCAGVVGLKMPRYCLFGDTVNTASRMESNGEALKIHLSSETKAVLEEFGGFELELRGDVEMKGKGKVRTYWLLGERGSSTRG
Procedure, shortened: (§1)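 Step 1: add buffer (PBS, 0.1% BSA, 1 mM IBMX) and compounds, 3-fold series from 30 μM top. Step 2: incubate 30 min, 37 °C. Step 3: lyse; HTRF reagents 1 h at RT.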

human NPR1 = biological target: T1, human NPR1 (Homo sapiens, UniProt P16066); assay: Cellular cGMP production assay, human NPR1 expressing CHO-K1 cells (CisBio HTRF); format: cell-based; settings: for AC50: cGMP production, 30 min at 37° C., 12-point dose-response from 30 μM; for Human NPR1 Amax (% of ANP): maximum cGMP production as percentage of the maximum cGMP produced with ANP
T1 construct: host or cells: CHO-K1
T1 sequence (P16066 33-1061): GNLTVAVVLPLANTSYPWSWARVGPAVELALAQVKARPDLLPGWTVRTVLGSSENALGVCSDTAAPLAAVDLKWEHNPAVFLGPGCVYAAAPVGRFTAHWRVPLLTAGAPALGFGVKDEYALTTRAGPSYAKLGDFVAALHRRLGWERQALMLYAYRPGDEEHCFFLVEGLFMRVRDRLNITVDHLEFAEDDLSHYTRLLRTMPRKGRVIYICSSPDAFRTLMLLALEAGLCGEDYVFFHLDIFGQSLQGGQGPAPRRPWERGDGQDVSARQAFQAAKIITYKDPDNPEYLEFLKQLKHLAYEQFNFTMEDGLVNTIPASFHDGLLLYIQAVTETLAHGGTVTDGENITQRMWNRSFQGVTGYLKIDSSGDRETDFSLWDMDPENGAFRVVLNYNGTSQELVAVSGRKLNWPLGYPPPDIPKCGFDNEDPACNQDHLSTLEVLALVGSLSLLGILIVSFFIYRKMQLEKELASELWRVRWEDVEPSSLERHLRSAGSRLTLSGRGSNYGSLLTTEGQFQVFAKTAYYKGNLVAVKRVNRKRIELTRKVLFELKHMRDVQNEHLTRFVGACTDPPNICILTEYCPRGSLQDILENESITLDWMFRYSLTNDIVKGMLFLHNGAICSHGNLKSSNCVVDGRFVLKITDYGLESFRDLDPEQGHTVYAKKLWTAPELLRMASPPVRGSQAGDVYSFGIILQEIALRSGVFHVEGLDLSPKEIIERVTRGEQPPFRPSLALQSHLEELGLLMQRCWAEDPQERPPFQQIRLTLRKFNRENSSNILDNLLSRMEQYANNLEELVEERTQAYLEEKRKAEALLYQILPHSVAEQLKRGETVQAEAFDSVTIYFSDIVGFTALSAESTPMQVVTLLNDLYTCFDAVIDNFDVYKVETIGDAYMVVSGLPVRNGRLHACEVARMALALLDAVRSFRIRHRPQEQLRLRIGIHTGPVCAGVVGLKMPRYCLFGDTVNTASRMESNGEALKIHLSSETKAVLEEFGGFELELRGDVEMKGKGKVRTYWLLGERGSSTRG
Procedure, shortened: as §1

[1] = cGMP production, monkey NPR1 CHO-K1 cells, 30 min at 37° C., 12-point dose-response from 30 μM, read-out: Monkey NPR1 AC50

Structure (SMILES) | AC50 (monkey NPR1; [1]) [nM] | Monkey NPR1 Amax (% of ANP) (monkey NPR1; monkey NPR1 CHO-K1 cells) | AC50 (human NPR1) [nM] | Human NPR1 Amax (% of ANP) (human NPR1) | AC50 (monkey NPR1) [nM]
CC[C@H]([C@H]1CC[C@H](C(=O)O)CC1)N(C)c1nc2c(c(N[C@@H](CN3CCCC[C@@H]3CO)c3cnn(CC)c3)n1)C[C@H](c1cccc(F)c1)CC2 [Compound 104, (1R,4r)-4-((R)-1-(((R)-4-(((R)-1-(1-ethyl-1H-pyrazol-4-yl)-2-((R)-2-(hydroxymethyl)piperidin-1-yl)ethyl)amino)-6-(3-fluorophenyl)-5,6,7,8-tetrahydroquinazolin-2-yl)(methyl)amino)propyl)cyclohexane-1-carboxylic acid] | 290 | 109.908 % of ANP | 396 | 106.357 % of ANP | –
CC[C@H]([C@H]1CC[C@H](C(=O)O)CC1)N(C)c1nc2c(c(N[C@@H](CN3C4CCCC3CC4)c3ccn(C)n3)n1)C[C@H](c1cccc(F)c1)CC2 [Compound 105, (1R,4r)-4-((1R)-1-(((6R)-4-(((1S)-2-(8-azabicyclo[3.2.1]octan-8-yl)-1-(1-methyl-1H-pyrazol-3-yl)ethyl)amino)-6-(3-fluorophenyl)-5,6,7,8-tetrahydroquinazolin-2-yl)(methyl)amino)propyl)cyclohexane-1-carboxylic acid] | – | 97.086 % of ANP | 396 | 99.945 % of ANP | 272
CC[C@H]([C@H]1CC[C@H](C(=O)O)CC1)N(C)c1nc2c(c(N[C@@H](CN3CCC[C@H](C)C3)c3cnn(C)c3)n1)CN(c1ccccc1F)CC2 [Compound 106, (1R,4r)-4-((R)-1-((6-(2-fluorophenyl)-4-(((R)-1-(1-methyl-1H-pyrazol-4-yl)-2-((S)-3-methylpiperidin-1-yl)ethyl)amino)-5,6,7,8-tetrahydropyrido[4,3-d]pyrimidin-2-yl)(methyl)amino)propyl)cyclohexane-1-carboxylic acid] | 254 | 104.076 % of ANP | 399 | 100.198 % of ANP | –
CC[C@H]([C@H]1CC[C@H](C(=O)O)CC1)N(C)c1nc2c(c(NC(CN3CCC[C@H](C)C3)c3cnn(CF)c3)n1)C[C@H](c1ccccc1)CC2 (stereo partly drawn) [Compound 107, (1R,4r)-4-((1R)-1-(((6R)-4-((1-(1-(fluoromethyl)-1H-pyrazol-4-yl)-2-((S)-3-methylpiperidin-1-yl)ethyl)amino)-6-phenyl-5,6,7,8-tetrahydroquinazolin-2-yl)(methyl)amino)propyl)cyclohexane-1-carboxylic acid] | 224 | 100.163 % of ANP | 404 | 97.223 % of ANP | –
CC[C@@H](Nc1nc2c(c(N[C@@H](CN3C4CCCC3CCC4)c3ccccc3)n1)C[C@H](c1ccccc1)CC2)[C@H]1CC[C@H](C(=O)O)CC1 [Compound 108, (1R,4r)-4-((R)-1-(((R)-4-(((R)-2-((1S,5S)-9-azabicyclo[3.3.1]nonan-9-yl)-1-phenylethyl)amino)-6-phenyl-5,6,7,8-tetrahydroquinazolin-2-yl)amino)propyl)cyclohexane-1-carboxylic acid] | – | 99.706 % of ANP | 410 | 93.072 % of ANP | 248
CC[C@@H](Nc1nc2c(c(N[C@@H](CN3CCCC4(CCOC4)C3)c3cnn(CC)c3)n1)C[C@H](c1ccccc1)CC2)[C@H]1CC[C@H](C(=O)O)CC1 (stereo partly drawn) [Compound 109, (1R,4r)-4-((1R)-1-(((6R)-4-(((1R)-1-(1-ethyl-1H-pyrazol-4-yl)-2-(2-oxa-7-azaspiro[4.5]decan-7-yl)ethyl)amino)-6-phenyl-5,6,7,8-tetrahydroquinazolin-2-yl)amino)propyl)cyclohexane-1-carboxylic acid] | 190 | 115.338 % of ANP | 412 | 91.101 % of ANP | –
CC[C@H]([C@H]1CC[C@H](C(=O)O)CC1)N(C)c1nc2c(c(N[C@@H](CN3CCC[C@H](C)C3)c3cnn(C)c3)n1)CN(c1ccc(F)cc1)CC2 [Compound 110, (1R,4r)-4-((R)-1-((6-(4-fluorophenyl)-4-(((R)-1-(1-methyl-1H-pyrazol-4-yl)-2-((S)-3-methylpiperidin-1-yl)ethyl)amino)-5,6,7,8-tetrahydropyrido[4,3-d]pyrimidin-2-yl)(methyl)amino)propyl)cyclohexane-1-carboxylic acid] | 238 | 103.438 % of ANP | 419 | 99.979 % of ANP | –
CC[C@@H](N(C)c1nc2c(c(N[C@@H](CN3C4CCCC3CC4)c3sc(C)nc3C)n1)C[C@H](c1cccc(F)c1)CC2)C12CC(C(=O)O)(C1)C2 [Compound 111, 3-((1R)-1-(((6R)-4-(((1S)-2-(8-azabicyclo[3.2.1]octan-8-yl)-1-(2,4-dimethylthiazol-5-yl)ethyl)amino)-6-(3-fluorophenyl)-5,6,7,8-tetrahydroquinazolin-2-yl)(methyl)amino)propyl)bicyclo[1.1.1]pentane-1-carboxylic acid] | – | 103.264 % of ANP | 424 | 106.085 % of ANP | 271
CC[C@H]([C@H]1CC[C@H](C(=O)O)CC1)N(C)c1nc2c(c(N[C@@H](CN3C4CCCC3CC(O)C4)c3ccccc3)n1)C[C@H](c1ccccc1)CC2 (stereo partly drawn) [Compound 112, (1R,4r)-4-((1R)-1-(((6R)-4-(((1R)-2-((1R,5S)-3-hydroxy-9-azabicyclo[3.3.1]nonan-9-yl)-1-phenylethyl)amino)-6-phenyl-5,6,7,8-tetrahydroquinazolin-2-yl)(methyl)amino)propyl)cyclohexane-1-carboxylic acid] | – | 97.009 % of ANP | 427 | 90.394 % of ANP | 394
CC[C@@H](N(C)c1nc2c(c(N[C@@H](CN3C4CCCC3CC4)c3scnc3C)n1)C[C@H](c1cccc(F)c1)CC2)C12CC(C(=O)O)(C1)C2 [Compound 113, 3-((1R)-1-(((6R)-4-(((1S)-2-(8-azabicyclo[3.2.1]octan-8-yl)-1-(4-methylthiazol-5-yl)ethyl)amino)-6-(3-fluorophenyl)-5,6,7,8-tetrahydroquinazolin-2-yl)(methyl)amino)propyl)bicyclo[1.1.1]pentane-1-carboxylic acid] | – | 99.894 % of ANP | 438 | 98.462 % of ANP | 460
CC[C@@H](Nc1nc2c(c(N[C@@H](CN3CCCCC3)c3scnc3C)n1)C[C@H](c1ccccc1)CC2)[C@H]1CC[C@H](C(=O)O)CC1 [Compound 114, (1R,4r)-4-((R)-1-(((R)-4-(((S)-1-(4-methylthiazol-5-yl)-2-(piperidin-1-yl)ethyl)amino)-6-phenyl-5,6,7,8-tetrahydroquinazolin-2-yl)amino)propyl)cyclohexane-1-carboxylic acid] | 296 | 113.348 % of ANP | 449 | 108.428 % of ANP | –
CC[C@@H](Nc1nc2c(c(N[C@@H](CN3CCCC3)c3ccccc3)n1)C[C@@H](c1ccccc1)CC2)[C@H]1CC[C@H](C(=O)O)CC1 [Compound 115, (1R,4r)-4-((R)-1-(((S)-6-phenyl-4-(((R)-1-phenyl-2-(pyrrolidin-1-yl)ethyl)amino)-5,6,7,8-tetrahydroquinazolin-2-yl)amino)propyl)cyclohexane-1-carboxylic acid] | 387 | 106.285 % of ANP | 474 | 111.049 % of ANP | –
CC[C@H]([C@H]1CC[C@H](C(=O)O)CC1)N(C)c1nc2c(c(N[C@@H](CN3CCCCC3)c3cnn(CC)c3)n1)C[C@@H](c1cccc(F)c1)CC2 [Compound 116, (1R,4r)-4-((R)-1-(((S)-4-(((R)-1-(1-ethyl-1H-pyrazol-4-yl)-2-(piperidin-1-yl)ethyl)amino)-6-(3-fluorophenyl)-5,6,7,8-tetrahydroquinazolin-2-yl)(methyl)amino)propyl)cyclohexane-1-carboxylic acid] | 471 | 104.029 % of ANP | 477 | 95.817 % of ANP | –
